Source: PMC6355801, “The compound TB47 is highly bactericidal against Mycobacterium ulcerans in a Buruli ulcer mouse model” (Nature Communications, 2019)
In brackets after ≈: the same amount, converted by molar mass. Like-named read-outs stand apart in the source and are kept apart here.

What was measured:
M. marinum = format: cell-based, Mycobacterium marinum
M. ulcerans = format: cell-based, Mycobacterium ulcerans
M. smegmatis = assay: microbe, parasite or virus in culture; format: cell-based, Mycobacterium smegmatis
CYP 1A2 = CYP 1A2 (Homo sapiens, UniProt P05177); assay: CYP inhibition; format: in vitro ADME
Chain of CYP 1A2 (P05177 whole entry): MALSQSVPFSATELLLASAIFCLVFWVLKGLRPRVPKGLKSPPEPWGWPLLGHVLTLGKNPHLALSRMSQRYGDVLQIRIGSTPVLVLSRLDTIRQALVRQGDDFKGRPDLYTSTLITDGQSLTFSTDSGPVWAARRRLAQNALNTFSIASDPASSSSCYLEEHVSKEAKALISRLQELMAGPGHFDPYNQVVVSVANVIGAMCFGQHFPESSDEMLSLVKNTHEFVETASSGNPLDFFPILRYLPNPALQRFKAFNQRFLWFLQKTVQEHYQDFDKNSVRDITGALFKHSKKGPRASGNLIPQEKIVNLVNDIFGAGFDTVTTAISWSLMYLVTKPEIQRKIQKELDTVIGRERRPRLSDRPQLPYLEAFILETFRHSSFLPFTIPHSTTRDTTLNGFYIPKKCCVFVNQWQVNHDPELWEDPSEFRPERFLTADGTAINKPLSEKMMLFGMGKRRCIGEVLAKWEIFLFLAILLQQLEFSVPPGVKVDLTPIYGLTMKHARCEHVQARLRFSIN

Pseudomonas aeruginosa = assay: MIC, standard broth dilution assay (CLSI); format: cell-based; conditions: 3 clinical isolates
Enterococcus faecalis = assay: MIC, standard broth dilution assay (CLSI); format: cell-based; conditions: 1 clinical isolate
[1] = format: in vitro ADME, Dog
From the text: (§1) Supplement 41467_2019_8464_MOESM1_ESM.docx, table 4: Table 2-3 Metabolic stability | column: T1/2 (min); Clint In Vitro (mL min^-1 gprot^-1); Clint In Vivo Extpl (mL min^-1); Clint Hep In Vivo Extpl (mL min^-1); Stability

[2] = format: in vitro ADME, Mouse
From the text: as §1

CYP 2C19 = CYP 2C19 (Homo sapiens, UniProt P33261); format: in vitro ADME; conditions: read-out: CYP Inhibition (IC50)
Chain of CYP 2C19 (P33261 whole entry): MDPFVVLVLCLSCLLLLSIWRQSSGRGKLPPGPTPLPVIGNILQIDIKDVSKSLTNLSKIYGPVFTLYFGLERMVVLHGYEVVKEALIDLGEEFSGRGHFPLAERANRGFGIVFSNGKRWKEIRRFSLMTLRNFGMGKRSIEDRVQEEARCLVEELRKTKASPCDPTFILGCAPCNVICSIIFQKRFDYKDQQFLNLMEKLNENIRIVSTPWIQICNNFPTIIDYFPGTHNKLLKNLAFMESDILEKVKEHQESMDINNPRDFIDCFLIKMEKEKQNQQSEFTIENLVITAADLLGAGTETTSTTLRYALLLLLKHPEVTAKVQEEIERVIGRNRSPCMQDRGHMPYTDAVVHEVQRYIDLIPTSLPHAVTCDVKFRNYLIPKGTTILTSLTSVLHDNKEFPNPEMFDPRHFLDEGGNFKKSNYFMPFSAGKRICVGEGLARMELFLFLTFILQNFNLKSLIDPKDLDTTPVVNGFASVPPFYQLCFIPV

[3] = format: in vitro ADME, Monkey
From the text: as §1

[4] = Long-term administration study in rats; format: in vivo; conditions: 10, 30, or 100 mg kg^−1 orally daily for 30 days, male and female rats
CYP 2C9 = CYP 2C9 (Homo sapiens, UniProt P11712); assay: CYP inhibition; format: in vitro ADME
Chain of CYP 2C9 (P11712 whole entry): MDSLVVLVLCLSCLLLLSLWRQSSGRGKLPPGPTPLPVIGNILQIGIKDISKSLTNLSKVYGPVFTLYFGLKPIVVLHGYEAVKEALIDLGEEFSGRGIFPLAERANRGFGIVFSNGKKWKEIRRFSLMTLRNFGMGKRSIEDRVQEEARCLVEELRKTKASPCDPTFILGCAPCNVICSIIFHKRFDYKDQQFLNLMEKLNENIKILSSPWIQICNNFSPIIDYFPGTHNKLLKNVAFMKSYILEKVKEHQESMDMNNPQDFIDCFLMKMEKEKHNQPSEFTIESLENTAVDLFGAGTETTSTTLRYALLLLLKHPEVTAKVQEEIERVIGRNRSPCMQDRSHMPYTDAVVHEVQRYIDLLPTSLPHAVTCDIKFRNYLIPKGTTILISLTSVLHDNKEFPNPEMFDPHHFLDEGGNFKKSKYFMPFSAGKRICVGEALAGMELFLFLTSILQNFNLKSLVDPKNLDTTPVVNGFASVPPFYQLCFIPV

[5] = Oral tolerability in mice; format: in vivo
[6] = test system: Mycobacterium bovis BCG Tice; format: cell-based; conditions: 1 strain
[7] = format: in vitro ADME, Human
From the text: as §1

Candida albicans = assay: MIC, standard broth dilution assay (CLSI); format: cell-based; conditions: 2 clinical isolates
[8] = test system: most of the clinical strains; assay: MIC, standard broth dilution assay (CLSI), summary for clinical strains; format: cell-based
[9] = test system: M. ulcerans strains 1059 and 1615; assay: MIC on 7H11 agar plates; format: cell-based; conditions: Mycobacterium ulcerans, 2 strains (1059 and 1615)
CYP 3A4 = CYP 3A4 (Homo sapiens, UniProt P08684); conditions: read-out: CYP Inhibition (IC50)
Chain of CYP 3A4 (P08684 whole entry): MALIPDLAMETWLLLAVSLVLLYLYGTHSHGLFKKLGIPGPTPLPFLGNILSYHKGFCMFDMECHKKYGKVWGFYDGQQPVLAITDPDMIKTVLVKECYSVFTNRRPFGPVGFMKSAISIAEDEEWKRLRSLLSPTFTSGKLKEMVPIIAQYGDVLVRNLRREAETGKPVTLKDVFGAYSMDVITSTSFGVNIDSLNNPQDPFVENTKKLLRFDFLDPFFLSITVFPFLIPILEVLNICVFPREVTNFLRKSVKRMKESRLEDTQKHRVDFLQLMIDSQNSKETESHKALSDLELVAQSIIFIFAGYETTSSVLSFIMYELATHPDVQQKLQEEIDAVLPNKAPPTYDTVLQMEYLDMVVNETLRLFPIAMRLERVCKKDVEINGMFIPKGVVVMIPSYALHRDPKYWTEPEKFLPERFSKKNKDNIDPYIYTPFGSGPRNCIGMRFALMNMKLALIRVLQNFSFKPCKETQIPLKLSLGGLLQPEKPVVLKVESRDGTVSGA

CYP 2D6 = CYP 2D6 (Homo sapiens, UniProt P10635); format: in vitro ADME; conditions: read-out: CYP Inhibition (IC50)
Chain of CYP 2D6 (P10635 whole entry): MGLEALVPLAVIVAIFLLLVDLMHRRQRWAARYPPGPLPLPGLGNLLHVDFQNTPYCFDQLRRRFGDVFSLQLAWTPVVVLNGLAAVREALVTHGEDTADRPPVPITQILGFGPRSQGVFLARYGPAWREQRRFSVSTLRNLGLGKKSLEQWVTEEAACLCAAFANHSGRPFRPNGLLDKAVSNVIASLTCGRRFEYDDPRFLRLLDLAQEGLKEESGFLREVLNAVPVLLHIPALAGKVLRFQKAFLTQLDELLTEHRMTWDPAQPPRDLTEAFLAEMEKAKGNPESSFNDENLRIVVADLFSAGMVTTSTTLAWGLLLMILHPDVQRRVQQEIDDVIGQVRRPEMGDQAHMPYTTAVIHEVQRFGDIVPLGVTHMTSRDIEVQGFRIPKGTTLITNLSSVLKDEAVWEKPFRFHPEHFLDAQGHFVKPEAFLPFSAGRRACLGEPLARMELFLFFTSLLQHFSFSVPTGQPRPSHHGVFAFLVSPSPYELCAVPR

Escherichia coli = assay: MIC, standard broth dilution assay (CLSI); format: cell-based; conditions: 5 clinical isolates
[10] = not told
[11] = format: in vitro ADME, Rat
From the text: as §1

Mycobacterium abscessus = assay: MIC, standard broth dilution assay (CLSI); format: cell-based; conditions: 20 clinical isolates
hERG = hERG (Homo sapiens, UniProt Q12809); assay: hERG inhibition; format: biochemical
Chain of hERG (Q12809 whole entry): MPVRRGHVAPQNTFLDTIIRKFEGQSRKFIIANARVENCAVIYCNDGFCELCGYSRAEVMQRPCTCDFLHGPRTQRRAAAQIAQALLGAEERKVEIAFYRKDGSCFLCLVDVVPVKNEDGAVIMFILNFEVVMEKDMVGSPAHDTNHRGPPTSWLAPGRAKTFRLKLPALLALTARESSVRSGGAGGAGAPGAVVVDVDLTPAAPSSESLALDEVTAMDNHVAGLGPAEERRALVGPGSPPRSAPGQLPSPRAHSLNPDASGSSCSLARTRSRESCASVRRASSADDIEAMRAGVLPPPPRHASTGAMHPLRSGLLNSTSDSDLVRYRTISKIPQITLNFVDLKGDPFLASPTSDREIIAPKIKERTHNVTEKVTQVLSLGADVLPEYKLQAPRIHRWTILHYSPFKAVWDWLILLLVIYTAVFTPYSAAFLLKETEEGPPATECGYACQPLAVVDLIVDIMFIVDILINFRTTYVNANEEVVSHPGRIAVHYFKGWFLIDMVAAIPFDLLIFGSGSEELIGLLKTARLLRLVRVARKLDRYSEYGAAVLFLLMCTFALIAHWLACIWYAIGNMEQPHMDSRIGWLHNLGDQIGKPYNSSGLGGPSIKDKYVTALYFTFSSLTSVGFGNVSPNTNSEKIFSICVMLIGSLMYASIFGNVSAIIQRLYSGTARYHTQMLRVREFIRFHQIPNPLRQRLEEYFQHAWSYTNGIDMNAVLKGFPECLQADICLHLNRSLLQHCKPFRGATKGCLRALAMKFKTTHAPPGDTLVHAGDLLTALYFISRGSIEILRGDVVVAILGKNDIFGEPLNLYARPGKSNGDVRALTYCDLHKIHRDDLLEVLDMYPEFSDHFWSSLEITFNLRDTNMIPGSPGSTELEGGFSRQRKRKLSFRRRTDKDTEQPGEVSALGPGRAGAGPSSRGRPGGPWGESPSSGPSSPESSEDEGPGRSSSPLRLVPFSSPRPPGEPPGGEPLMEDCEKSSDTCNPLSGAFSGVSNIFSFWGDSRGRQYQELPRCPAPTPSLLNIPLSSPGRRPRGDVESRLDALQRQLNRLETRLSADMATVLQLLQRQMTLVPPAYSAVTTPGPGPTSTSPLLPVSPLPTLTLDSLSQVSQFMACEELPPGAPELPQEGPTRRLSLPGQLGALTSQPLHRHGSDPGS

[12] = design: species or system BALB/c mice; conditions: mouse, in vivo
Method: BALB/c mice were given 2 mg kg^−1 TB47 intravenously or 10 mg kg^−1 orally. […] Footpads and lung tissues were collected at 6, 12, 24, and 48 h post-dose for oral group. After extraction and centrifuge at 4 °C, TB47 concentrations were determined by Liquid Chromatograph-Mass Spectrometer (LC-MS).

Enterococcus faecium = assay: MIC, standard broth dilution assay (CLSI); format: cell-based; conditions: 1 clinical isolate
M. ulcerans (AlMu) = assay: Time kill assay and CFU-based MBC in liquid culture; format: cell-based, Mycobacterium ulcerans
Method: Serial dilutions of drug-containing solutions and autoluminescent mycobacteria broth culture (OD600 of 0.3 to 1.0) were prepared. RLU counts from the same batch of triplicate samples were measured according to the designed time points. Ninety-six-well plates were measured as rendering the amount of light by using a Veritas™ Microplate Luminometer Operating Manual (Turner BioSystems). MIClux was determined as the lowest concentration that can inhibit > 90% RLUs compared with that from the untreated controls[6],[18]. The time-killing curves and MIClux of autoluminescent strains were determined by detecting RLUs from these samples. For M. ulcerans and M. marinum strains, the incubation time for MIClux reading was 7 days and 3 days, respectively. The minimum bactericidal concentration (MBC) was defined as the lowest concentration of drug that killed ≥ 99% of the CFU compared with the CFU count of the initial inoculum used for the liquid activity assays, which was adopted from reference. […] The concentrations used were twofold series of dilutions for this purpose. The incubation time for RLU reading was 14 days for the MBD experiment and the light from each 1.5 mL tube containing total 500 μL culture was detected using Promega GloMax 20/20n. […] The concentrations used were fivefold series of dilutions for this purpose. Each above experiment was performed in triplicate (three independent experiments) or more by independent persons and from three or more independent cultures. The representative results are shown.

THP-1 cell = assay: Cytotoxicity; format: cell-based
Acinetobacter baumannii = assay: MIC, standard broth dilution assay (CLSI); format: cell-based; conditions: 3 clinical isolates
Klebsiella pneumoniae = assay: MIC, standard broth dilution assay (CLSI); format: cell-based; conditions: 3 clinical isolates
Salmonella enteriditis = assay: MIC, standard broth dilution assay (CLSI); format: cell-based; conditions: 1 clinical isolate
Staphylococcus aureus = assay: MIC, standard broth dilution assay (CLSI); format: cell-based; conditions: 1 clinical isolate

## CO[C@H]1/C=C/O[C@@]2(C)Oc3c(C)c(O)c4c(O)c(c(/C=N/N5CCN(C)CC5)c(O)c4c3C2=O)NC(=O)/C(C)=C\C=C\[C@H](C)[C@H](O)[C@@H](C)[C@@H](O)[C@@H](C)[C@H](OC(C)=O)[C@@H]1C [RIF, rifampin]
M. marinum; M. marinum Wild-type (Autoluminescent strain)
  MIClux: 0.25 to 1.0 µg/mL
M. marinum; M. marinum Wild-type:: qcrB^WT, over-expression of wild-type qcrB
  MIClux: 0.25 to 1.0 µg/mL
M. marinum; M. marinum Wild-type:: vector (empty plasmid)
  MIClux: 0.25 to 1.0 µg/mL
M. ulcerans; M. ulcerans Wild-type (AlMu 1059)
  MIClux: 0.06 to 0.25 µg/mL
M. ulcerans; M. ulcerans Wild-type:: qcrB^WT, over-expression of wild-type qcrB
  MIClux: 0.06 to 0.25 µg/mL
M. ulcerans; M. ulcerans Wild-type:: vector (empty plasmid)
  MIClux: 0.06 to 0.25 µg/mL

## NNC(=O)c1ccncc1 [isoniazid]
M. smegmatis; MsmΔcydAB
  MIC: 4 µg/mL (≈ 29.2 µM)
M. smegmatis; MsmΔcydAB::cydAB^Mtb
  MIC: 4 µg/mL (≈ 29.2 µM)
M. smegmatis; MsmΔcydAB::cydAB^Mu
  MIC: 4 µg/mL (≈ 29.2 µM)
M. smegmatis; Mycolicibacterium smegmatis
  MIC: 4 µg/mL (≈ 29.2 µM)

## COc1ccn2nc(C)c(C(=O)NCc3ccc(N4CCC(c5ccc(OC(F)(F)F)cc5)CC4)cc3)c2c1 [TB47]
M. smegmatis; Mycobacterium smegmatis, 1 strain
  MIC: 50 µg/mL (≈ 92.8 µM)
CYP 1A2
  IC50: > 10 µM
Pseudomonas aeruginosa
  MIC: >128 µg/mL
Enterococcus faecalis
  MIC: >128 µg/mL
[1]
  Stability: High
[1]; dog
  Clint Hep In Vivo Extpl: 17.1 mL/min
  Clint In Vitro: 3.5 mL min^-1 gprot^-1
  Clint In Vivo Extpl: 19.0 mL/min
  T1/2: 9.97 h
[2]
  Stability: High
[2]; mouse
  Clint Hep In Vivo Extpl: 0.8 mL/min
  Clint In Vitro: 16.5 mL min^-1 gprot^-1
  Clint In Vivo Extpl: 1.1 mL/min
  T1/2: 2.12 h
CYP 2C19
  IC50: > 10 µM
[3]
  Stability: High
[3]; monkey
  Clint Hep In Vivo Extpl: 0.1 mL/min
  Clint In Vitro: 0.0 mL min^-1 gprot^-1
  Clint In Vivo Extpl: 0.1 mL/min
  T1/2: 1555 h
[4]
  tolerability: well tolerated without any meaningful clinical signs of toxicity
CYP 2C9
  IC50: > 10 µM
[5]; oral 200 mg kg^−1 daily for 4 weeks, mice
  tolerability: well tolerated
[5]; single oral administration of 2000 mg kg^−1, mice
  tolerability: well tolerated
[6]
  MIC: 0.003 µg/mL (≈ 0.00557 µM)
[7]
  Stability: High
[7]; human
  Clint Hep In Vivo Extpl: 0.0 mL/min
  Clint In Vitro: 0.0 mL min^-1 gprot^-1
  Clint In Vivo Extpl: 0.0 mL/min
  T1/2: Stable
Candida albicans
  MIC: >128 µg/mL
[8]
  MICs: > 128 µg/mL
M. marinum; Mycobacterium marinum, 1 strain
  MIC: 0.001 to 0.008 µg/mL
[9]
  MIC: 0.0016 µg/mL (≈ 0.00297 µM)
CYP 3A4; 3A4-Midazolam
  IC50: > 10 µM
CYP 3A4; 3A4-Testerone
  IC50: > 10 µM
CYP 2D6
  IC50: > 10 µM
Escherichia coli
  MIC: >128 µg/mL
[10]
  Conclusion: P-gp substrate: Not P-gp substrate
  Conclusion: permeability: High permeability
  Efflux Ratio: 1.07
[11]
  Stability: High
[11]; rat
  Clint Hep In Vivo Extpl: 5.4 mL/min
  Clint In Vitro: 16.5 mL min^-1 gprot^-1
  Clint In Vivo Extpl: 7.4 mL/min
  T1/2: 2.13 h
Mycobacterium abscessus
  MIC: >128 µg/mL
hERG
  IC50: > 30 µM
[12]
  bioavailability: 38.1%
[12]; iv, 2 mg/kg
  MRT(0-t): 14.7 h
  MRT(0-∞): 22.3 h
  t 1/2z: 17.7 h
[12]; po, 10 mg/kg
  MRT(0-t): 20.2 h
  MRT(0-∞): 52.0 h
  t 1/2z: 35.6 h
Enterococcus faecium
  MIC: >128 µg/mL
M. ulcerans (AlMu); TB47 at 0.008 µg mL^−1 or higher, time kill assay
  bactericidal activity compared with 0.2 µg mL^−1 rifampin: more potent
M. ulcerans (AlMu); killed ≥ 99% of CFU of the initial inoculum
  minimum bactericidal concentration (MBC): 0.0064 µg/mL (≈ 0.0119 µM)
M. ulcerans (AlMu); standard time kill assay, AlMu in liquid culture
  concentration demonstrating bactericidal activity: ≥ 0.0016 µg/mL
THP-1 cell
  IC50: 50 µM
VERO cell
  IC50: > 100 µM
Acinetobacter baumannii
  MIC: >128 µg/mL
Klebsiella pneumoniae
  MIC: >128 µg/mL
Salmonella enteriditis
  MIC: >128 µg/mL
Staphylococcus aureus
  MIC: >128 µg/mL
